Measurements taken from article PMC8400343, “Synthesis and Evaluation of the Antidepressant-like Properties of HBK-10, a Novel 2-Methoxyphenylpiperazine Derivative Targeting the 5-HT1A and D2 Receptors” (Pharmaceuticals, 2021).

What was measured:
mice [1] = experiment: Tail suspension test in mice; type: in vivo, mouse; conditions: 30 min before test
Description: Adult male Albino-Swiss mice (CD-1, 8 weeks old, 18–21g: Jagiellonian University Medical College, Krakow, Poland) were used in all experiments. Unless stated otherwise, the animals were kept in groups of 10 mice in standard cages (37 cm × 21 cm × 15 cm) at a room temperature (22 ± 2 °C), on a 12 h light/dark cycle (lights on 7:00) with ad libitum access to food and water. Mice were used only once in each test. Behavioral experiments were performed between 8 am and 4 pm and evaluated by a trained observer blind to the treatments. Mice were handled for 1 week before starting the experimental procedures. Animals were randomly allocated to the treatment using a computer-generated sequence, and researchers making measurements on the animals or analyzing the results were blind to the allocation. Moreover, experimental groups were distributed across multiple cages, and the location of the mouse cages in the room was changed following each day. […]
The experiment was carried out in mice according to the method described by Steru et al. and as previously described. […] The total time of immobility was measured during the 6-min test period. […] The experiments were video-recorded and scored using elevenmaze.com software by a trained observer blind to the treatments.

mice [2] = experiment: Spontaneous locomotor activity in mice; type: in vivo, mouse; conditions: for Number of Crossings ± SEM: 4 min
Description: (§1) The locomotor activity of mice was measured as previously described. We used photoresistor actometers (Ugo Basile, Italy) connected to a counter for the recording of light-beam interruptions. Mice were placed individually in cages for 30 min, and the number of crossings of the light beams was recorded as the locomotor activity for 4 min.

[3] = Spontaneous locomotor activity in mice; type: in vivo, mouse; conditions: mouse, in vivo; ip, mice; read-out: ED50 (locomotor activity, sedative effect)
Description: as §1

mice [4] = experiment: Chimney test in mice; type: in vivo, mouse
Description: (§2) The chimney test was performed as previously described. The mice were trained before the test, and only those animals able to get out of the chimney within 1 min, were used at the experimental stage. The selected mice were placed in a 25 cm long and 2.5 cm in diameter horizontally located tube, which was reversed so that the mice could leave it only by climbing up backward until they reached the other end. Motor impairment was indicated by the inability of the mice to perform the test within 60 s. The number of animals unable to climb backward within 60 s was recorded, and TD50 values were calculated.

Chimney test in mice = type: in vivo, mouse; conditions: mouse, in vivo; ip, log-probit method
Description: as §2

dopaminergic D2 receptor = dopaminergic D2 receptor (Homo sapiens, UniProt P14416); experiment: Radioligand binding, [3H]-methylspiperon, CHO-K1 cells; conditions: mean ± SEM, read-out: Dopaminergic pKi D2 (converted)
Description: (§3) The reaction was terminated by rapid filtration through GF/B or GF/C filter mate presoaked with 0.3% polyethyleneimine for 30 min. Ten rapid washes with 200 µl 50 mM Tris buffer (4 °C, pH 7.4) were performed using an automated harvester system Harvester-96 MACH III FM (Tomtec). […] Radioactivity was counted in the MicroBeta2 scintillation counter (PerkinElmer) at approximately 30% efficiency. […] A single assay was performed with each compound concentrations in duplicate, and the whole assay was repeated in a three independent experiments.

[5] = tested on: corticosterone-treated mice; experiment: Locomotor activity in corticosterone-treated mice; type: in vivo, mouse; conditions: 4 min
Description: as §1
Mice were injected with corticosterone (sc, 20 mg/kg) at random times during the light phase for 21 days. The dose and route of administration of corticosterone were based on our previous study. Control mice received saline containing 0.1% dimethyl sulfoxide (DMSO) and 0.1% Tween (sc). For the next 21 days, 30 min before the corticosterone injection, mice were injected with saline, HBK-10 (0.625 or 1.25 mg/kg), or fluoxetine (15 mg/kg) (ip). Twenty-four hours after the last injection, animals were tested in the forced swim test and locomotor activity test (Figure 8).

human 5-HT2A receptor = target: T1, human 5-HT2A receptor (Homo sapiens, UniProt P28223); experiment: Radioligand binding, [3H]-ketanserin, CHO-K1 membranes; conditions: CHO-K1 cells, mean ± SEM, read-out: Serotonergic pKi 5-HT2A (converted)
T1 construct: expressed in transfected cells; host or cells: CHO-K1 (membranes)
Description: Radioligand binding was performed on membranes from CHO-K1 cells stably transfected with the human 5-HT1A, 5-HT2A, 5-HT6, or 5-HT7 receptors. […] Binding experiments were conducted in 96-well microplates, and the reaction mix included the solution of the test compound, radioligand, and diluted membranes or the tissue suspension.
as §3

Chain of dopaminergic D2 receptor (P14416 whole entry): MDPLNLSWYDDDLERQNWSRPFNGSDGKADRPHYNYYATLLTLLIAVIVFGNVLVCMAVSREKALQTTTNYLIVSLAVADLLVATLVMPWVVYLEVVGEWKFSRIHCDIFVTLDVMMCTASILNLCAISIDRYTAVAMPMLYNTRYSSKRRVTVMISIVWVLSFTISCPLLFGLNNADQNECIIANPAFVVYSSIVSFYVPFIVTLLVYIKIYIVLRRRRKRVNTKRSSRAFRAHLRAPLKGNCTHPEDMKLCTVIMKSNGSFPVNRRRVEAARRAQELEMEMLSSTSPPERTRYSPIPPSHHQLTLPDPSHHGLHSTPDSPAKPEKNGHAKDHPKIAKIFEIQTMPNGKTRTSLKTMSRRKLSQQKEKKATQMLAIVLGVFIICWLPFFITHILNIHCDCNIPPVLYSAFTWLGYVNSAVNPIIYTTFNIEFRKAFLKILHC
T1 sequence (P28223 whole entry): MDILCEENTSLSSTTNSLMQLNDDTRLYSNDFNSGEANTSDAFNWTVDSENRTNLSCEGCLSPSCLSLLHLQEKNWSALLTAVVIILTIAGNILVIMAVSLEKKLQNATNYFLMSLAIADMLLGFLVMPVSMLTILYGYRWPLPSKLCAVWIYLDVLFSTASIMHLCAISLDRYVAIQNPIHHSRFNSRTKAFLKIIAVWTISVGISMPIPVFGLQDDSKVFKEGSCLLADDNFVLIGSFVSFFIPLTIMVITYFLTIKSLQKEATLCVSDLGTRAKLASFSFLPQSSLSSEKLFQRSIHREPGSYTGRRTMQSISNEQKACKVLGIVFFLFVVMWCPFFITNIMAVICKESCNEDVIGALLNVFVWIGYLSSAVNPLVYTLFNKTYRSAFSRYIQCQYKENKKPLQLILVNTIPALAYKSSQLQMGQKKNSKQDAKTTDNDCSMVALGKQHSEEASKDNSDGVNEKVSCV

CCC(CN1CCN(c2ccccc2OC)CC1)NCCCOc1c(C)cccc1C.Cl.Cl (stereo not shown) [HBK-10, N-(3-(2,6-dimethylphenoxy)propyl)-1-(4-(2-methoxyphenyl)piperazin-1-yl)butan-2-amine dihydrochloride]
Reduction of immobility in the tail suspension test (mice [1]; 5 mg/kg ip): 54.5% | Reduction of immobility in the tail suspension test (mice [1]; 10 mg/kg ip): 42% | Number of Crossings ± SEM (mice [2]; 10 mg/kg ip): 355.1 ± 49.92 | Number of Crossings ± SEM (mice [2]; 20 mg/kg ip): 329.8 ± 34.52 | Number of Crossings ± SEM (mice [2]; 40 mg/kg ip): 155.4 ± 29.59 | Number of Crossings ± SEM (mice [2]; 60 mg/kg ip): 22.17 ± 2.03 | ED50 for sedative effect, fold higher than the lowest antidepressant-like dose (mice [2]; mouse, in vivo): approximately 26 fold | ED50 at 4 min [3]: 32.3 mg/kg | % of Animals That Did Not Climb out the Chimney (mice [4]; 10 mg/kg ip): 20% | % of Animals That Did Not Climb out the Chimney (mice [4]; 20 mg/kg ip): 40% | % of Animals That Did Not Climb out the Chimney (mice [4]; 30 mg/kg ip): 64% | % of Animals That Did Not Climb out the Chimney (mice [4]; 40 mg/kg ip): 87% | % of Animals That Did Not Climb out the Chimney (mice [4]; 60 mg/kg ip): 90% | TD50 at 30 min (Chimney test in mice): 21.7 mg/kg | melting point: 224 to 226 °C | Ki (dopaminergic D2 receptor): 50.1 nM | Number of Crossings ± SEM ([5]; 0.625 mg/kg ip chronic): 431.1 ± 47.92 | Number of Crossings ± SEM ([5]; 1.25 mg/kg ip chronic): 453.9 ± 41.27 | Ki (human 5-HT2A receptor): 191 nM
